# Laboratory results from US7566710B2, “Dual molecules containing a peroxide derivative, synthesis and therapeutic applications thereof” (Centre National de la Racherche Scientifique (C.N.R.S.), priority 2000, dated 2009).
# Where “and” joins values, the source holds several entries; their conditions need not be identical. Identical values can stand only once. Entries after “also recorded” stand apart in the source; their conditions may differ. Like-named read-outs stand apart in the source and are kept apart here.
# Experiments:
# [1] = test system: three Plasmodium falciparum strains; test: Anti-malarial activity, summary over the Nigerian, FcB1 and FcM29 strains; assay type: cell-based; details: susceptible and resistant strains
# Procedure: (§1) The parasite populations are synchronised over a 4 hour period by flotation with a gelatine solution, followed by lysis with 5% D-sorbitol 7,8. […] The anti-malarial activity tests are performed using Desjardins' radioactive micromethod 11. The tests are performed in triplicate, in 96-well microplates, the readings being at 1% haematocrit and 0.5-1% parasitaemia. For each test, the parasites are incubated with decreasing concentrations of drug for either 32 hours and 72 hours (4 wells contain chloroquine diphosphate as a reference). […] The parasite growth is measured with the incorporation of tritiated hypoxanthine compared to incorporation in the absence of drug (taken to be 100%). 12 and the IC50 values are determined graphically by plotting the percentage of inhibition as a function of the drug concentration.
# [2] = test system: P. falciparum FcM29-Cameroon (highly chloroquine resistant strain); test: Anti-malarial activity on P. falciparum FcM29-Cameroon strain, tritiated hypoxanthine incorporation; assay type: cell-based, Plasmodium falciparum
# Procedure: as §1
# [3] = test system: P. falciparum Nigerian (chloroquine susceptible strain); test: Anti-malarial activity on P. falciparum Nigerian strain, tritiated hypoxanthine incorporation; assay type: cell-based, Plasmodium falciparum
# Procedure: as §1
# [4] = test system: P. falciparum FcB1-Colombia (chloroquine resistant strain); test: Anti-malarial activity on P. falciparum FcB1-Colombia strain, tritiated hypoxanthine incorporation; assay type: cell-based, Plasmodium falciparum
# Procedure: The P. falciparum strains are cultured continuously according to Trager and Jensen's method 5, with the following modifications 6: the parasites are maintained in human red blood cells (O±), diluted to 1% haematocrit in RPMI 1640 medium supplemented with 25 mM Hepes+30 mM NaHCO3 and complemented with 5% AB+ human serum. The parasite populations are synchronised over a 4 hour period by flotation with a gelatine solution, followed by lysis with 5% D-sorbitol 7,8. […]. The anti-malarial activity tests are performed using Desjardins' radioactive micromethod 11. The tests are performed in triplicate, in 96-well microplates, the readings being at 1% haematocrit and 0.5-1% parasitaemia. For each test, the parasites are incubated with decreasing concentrations of drug for either 32 hours and 72 hours (4 wells contain chloroquine diphosphate as a reference). The first dilution of the drug is performed at 10 mg/ml in dimethylsulphoxide and the following dilutions are made with RPMI 1640. The parasite growth is measured with the incorporation of tritiated hypoxanthine compared to incorporation in the absence of drug (taken to be 100%). 12 and the IC50 values are determined graphically by plotting the percentage of inhibition as a function of the drug concentration.
# P. vinckei = test: 4 day test in mice infected with P. vinckei; assay type: in vivo; details: intraperitoneal route, for 2 months
# E. coli GE864 = test: Mutagenicity, SOS response (DNA repair induction) in E. coli GE864; assay type: cell-based; details: E. coli GE864, 5, 10, 15 and 20 μM; control 3 μM mitomycin C
# P. falciparum in culture = test: In vitro activity on P. falciparum in culture; assay type: cell-based; details: Plasmodium falciparum, read-out: LC50
# [5] = Toxicity after administration to healthy mice; details: 100 mg/kg/day oral route, three consecutive days
# [6] = test system: human Plasmodium falciparum isolates; test: Activity on human Plasmodium falciparum isolates; assay type: cell-based
# Procedure: Trioxaquine-citrate 4, referred to as DU-1102, was tested on human Plasmodium falciparum isolates, some of which were chloroquine- and/or pyrimethamine-resistant.
# [7] = test system: P. falciparum FcB1-Colombia (chloroquine resistant strain); details: read-out: IC50 for chloroquine, FcB1-Columbia strain, literature refs 9,10; cited from earlier work
# [8] = test system: P. falciparum FcM29-Cameroon (highly chloroquine resistant strain); details: read-out: IC50 for chloroquine, literature refs 9,10; cited from earlier work
# [9] = Nigerian (CQS), 32 hrs, read-out: IC50
# [10] = FcB1-Colombia (CQR), 72 hrs, read-out: IC50
# [11] = Nigerian (CQS), 72 hrs, read-out: IC50
# [12] = FcB1-Colombia (CQR), 32 hrs, read-out: IC50
smiles,measurement,setting,value
Clc1ccc2c(NCCNC3CCC4(CC3)OOC3(c5ccccc5)CC(c5ccccc5)=CC3O4)ccnc2c1 (mixture of isomers) [Trioxaquine 3],activity compared with chloroquine and the two fragments,[1],"significantly greater than the activity of not only chloroquine, but also of each of the two fragments"
same,IC50,"[2]; FcM29-Cameroon (CQR+), 72 hrs, read-out: IC50",0.018 µM
same,IC50,"[3]; Nigerian (CQS), 32 hrs",1 ng/mL
same,IC50,[3]; [9],0.0018 µM
same,IC50,[4]; [10],0.009 µM
Clc1ccc2c(NCCCCNC3CCC4(CC3)OOC3(c5ccccc5)CC(c5ccccc5)=CC3O4)ccnc2c1 (mixture of isomers) [Trioxaquine 9],activity compared with chloroquine and the two fragments,[1],"significantly greater than the activity of not only chloroquine, but also of each of the two fragments"
CCN(CC)CCCC(C)Nc1ccnc2cc(Cl)ccc12 (centres unmarked) [Chloroquine diphosphate],IC50,"[2]; Plasmodium falciparum, 32 h",0.1 µg/mL and 194 nM
same,IC50,"[2]; Plasmodium falciparum, 72 h",0.08 µg/mL and 155 nM
same,IC50,"[3]; Plasmodium falciparum, 32 h",0.045 µg/mL and 87 nM
same,IC50,"[3]; Plasmodium falciparum, 72 h",0.01 µg/mL and 19 nM
same,IC50,"[4]; Plasmodium falciparum, FCB1, 32 h",0.075 mg/L
same,IC50,"[4]; Plasmodium falciparum, FCB1, 72 h",0.06 µg/mL and 116 nM
CC(C)C1=CC2OC3(CCC(NCCNc4ccnc5cc(Cl)ccc45)CC3)OOC2(C)CC1.O=C(O)CC(O)(CC(=O)O)C(=O)O.O=C(O)CC(O)(CC(=O)O)C(=O)O (centres unmarked) [DU-1302],re-emergence,P. vinckei,no observable re-emergence
same,"mutagenicity, induction of DNA repair (SOS response)",E. coli GE864,Absence of mutagenicity
same,LC50,P. falciparum in culture,0.006 µM
same,apparent toxicity,[5],does not show any apparent toxicity
"NCCNc1ccnc2cc(Cl)ccc12 [Quinoline-amine1, 7-chloro-4-[N-(2-aminoethyl)amino]-quinoline]",IC50,"[3]; Plasmodium falciparum, Nigerian (CQS), 32 hrs, read-out: IC50",33 ng/mL
same,IC50,"[3]; Plasmodium falciparum, Nigerian (CQS), 72 hrs, read-out: IC50",7 ng/mL
same,IC50,"[4]; Plasmodium falciparum, FcB1-Colombia (CQR), 32 hrs, read-out: IC50",0.035 mg/L
same,IC50,"[4]; Plasmodium falciparum, FcB1-Colombia (CQR), 72 hrs, read-out: IC50",0.02 mg/L
O=C1CCC2(CC1)OOC1(c3ccccc3)CC(c3ccccc3)=CC1O2 (centres unmarked) [Trioxane-ketone 2],IC50,[3]; [9],0.149 µM
same,IC50,[3]; [11],0.045 µM
same,IC50,[4]; [12],0.113 µM
same,IC50,[4]; [10],0.036 µM
Clc1ccc2c(NCCNC3CCC4(CC3)OOC3(c5ccccc5)CC(c5ccccc5)=CC3O4)ccnc2c1.O=C(O)CC(O)(CC(=O)O)C(=O)O.O=C(O)CC(O)(CC(=O)O)C(=O)O (centres unmarked) [Trioxaquine 4],IC50 geometric mean,[6],0.041 mg/L
same,"relation of activity to susceptibility or resistance to other anti-malarial agents (chloroquine, pyrimethamine)",[6]; listed as DU-1102,independent of their susceptibility or their resistance; also recorded: no correlation
same,IC50,[6]; read-out: IC50 geometric mean,0.043 µM
same,activity compared with chloroquine and the two fragments,[1],"significantly greater than the activity of not only chloroquine, but also of each of the two fragments"
same,IC50,"[3]; Nigerian (CQS), 32 hrs",33 ng/mL
same,IC50,[3]; [9],0.035 µM
same,IC50,"[3]; Nigerian (CQS), 72 hrs",7 ng/mL
same,IC50,[3]; [11],0.008 µM
same,IC50,"[4]; FcB1-Colombia (CQR), 32 hrs",0.035 mg/L
same,IC50,[4]; [12],0.037 µM
same,IC50,"[4]; FcB1-Colombia (CQR), 72 hrs",0.02 mg/L
same,IC50,[4]; [10],0.021 µM
CCN(CC)CCCC(C)Nc1ccnc2cc(Cl)ccc12 (centres unmarked) [chloroquine],IC50,[7],> 0.1 µM
same,IC50,[8],> 0.1 µM
